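Tested at 5 concentrations; 48 h exposure; 96-well plates; endpoints linearly interpolated, else capped at highest concentration. GI50 is the concentration that inhibits growth by half.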 Active and inactive are the calls of the source. Rule as the data show it: active = GI50 up to about 1.1 µM and inactive = higher.
Columns and labels:
Experiment in all cases: DTP human tumour cell line panel, 48 h
UO-31 = test system: UO-31
BT-549 = test system: BT-549
SN12C = test system: SN12C
OVCAR-3 = test system: OVCAR-3
SK-OV-3 = test system: SK-OV-3
HOP-92 = test system: HOP-92
A498 = test system: A498
CAKI-1 = test system: CAKI-1
HL-60 = test system: HL-60
UACC-62 = test system: UACC-62
SW-620 = test system: SW-620
RPMI-8226 = test system: RPMI-8226
OVCAR-4 = test system: OVCAR-4
SR = test system: SR
Hs-578T = test system: Hs-578T
M14 = test system: M14
U-251 = test system: U-251
HCT-116 = test system: HCT-116
SNB-19 = test system: SNB-19

Row | SMILES | GI50 (UO-31) | GI50 (BT-549) | GI50 (SN12C) | GI50 (OVCAR-3) | GI50 (SK-OV-3) | GI50 (HOP-92) | GI50 (A498) | GI50 (CAKI-1) | GI50 (HL-60) | GI50 (UACC-62) | GI50 (SW-620) | GI50 (RPMI-8226) | GI50 (OVCAR-4) | GI50 (SR) | GI50 (Hs-578T) | GI50 (M14) | GI50 (U-251) | GI50 (HCT-116) | GI50 (SNB-19)
1 | COc1ccc(C(SCC(N)C(=O)O)(c2ccc(OC)cc2)c2ccc(OC)cc2)cc1 (configuration not stated) | 11.9 µM (inactive) | 12.8 µM (inactive) | 12.7 µM (inactive) | 12.2 µM (inactive) | 21.2 µM (inactive) | 14.7 µM (inactive) | 14.7 µM (inactive) | 17.3 µM (inactive) | 14 µM (inactive) | 10.7 µM (inactive) | > 10 µM (inactive) | 15.9 µM (inactive) | 13.8 µM (inactive) | 6.27 µM (inactive) | 12.2 µM (inactive) | 10.2 µM (inactive) | 14.8 µM (inactive) | 6.98 µM (inactive) | 14.1 µM (inactive)
2 | C[n+]1cccc2ccc3cccnc3c21 | 21.8 µM (inactive) | 31.7 µM (inactive) | 35.1 µM (inactive) | 26.3 µM (inactive) | 47.6 µM (inactive) | 57.7 µM (inactive) | 32.5 µM (inactive) | > 100 µM (inactive) | > 100 µM (inactive) | 55.3 µM (inactive) | 32.4 µM (inactive) | 4.91 µM (inactive) | 33.8 µM (inactive) | > 100 µM (inactive) | 12.7 µM (inactive) | 44.7 µM (inactive) | 18.5 µM (inactive) | 19.4 µM (inactive) | 30.8 µM (inactive)
3 | COc1cc2nc3c(=C(C#N)C#N)c4ccccc4n3c(=O)c2cc1OC | > 100 µM (inactive) | > 100 µM (inactive) | > 100 µM (inactive) | > 100 µM (inactive) | > 100 µM (inactive) | 36.5 µM (inactive) | > 100 µM (inactive) | > 100 µM (inactive) |  | > 100 µM (inactive) | > 100 µM (inactive) | > 100 µM (inactive) | > 100 µM (inactive) | > 100 µM (inactive) | 44.3 µM (inactive) | > 100 µM (inactive) | > 100 µM (inactive) | > 100 µM (inactive) | > 100 µM (inactive)
4 | CCCN(C(=O)c1ccccc1)C(C#N)c1ccc(C(C#N)N(CCC)C(=O)c2ccccc2)cc1 (configuration not stated) | > 100 µM (inactive) | 48.4 µM (inactive) | > 100 µM (inactive) | > 100 µM (inactive) | 22 µM (inactive) | 16.3 µM (inactive) | 37.1 µM (inactive) | > 100 µM (inactive) | > 100 µM (inactive) | 45 µM (inactive) | > 100 µM (inactive) | > 100 µM (inactive) | 14.5 µM (inactive) | > 100 µM (inactive) | 24.9 µM (inactive) | > 100 µM (inactive) | 40 µM (inactive) | > 100 µM (inactive) | 26.1 µM (inactive)
5 | CC(C)=CCC[C@@H](C)/C=C/C=C(\C)C(=O)CC[C@@H]1CC[N@+]2(C)CCCC[C@H]12 | > 100 µM (inactive) | 65.6 µM (inactive) | > 100 µM (inactive) | 32.9 µM (inactive) |  | 6.44 µM (inactive) | > 100 µM (inactive) | > 100 µM (inactive) |  | > 100 µM (inactive) | > 100 µM (inactive) | 70 µM (inactive) | > 100 µM (inactive) | > 100 µM (inactive) | 96.4 µM (inactive) | > 100 µM (inactive) | 23.9 µM (inactive) | > 100 µM (inactive) | 31.3 µM (inactive)
6 | COc1ccc2c(c1)/C(=C\c1c(Cl)n(-c3ccccc3)c3ccccc13)C(=O)N2 | 1.53 µM (inactive) | 10.7 µM (inactive) | 13.6 µM (inactive) | 2.25 µM (inactive) | 7.36 µM (inactive) | 2.08 µM (inactive) | 5.27 µM (inactive) | 4.08 µM (inactive) | 2.72 µM (inactive) | 5.89 µM (inactive) | 4.75 µM (inactive) | 1.38 µM (inactive) | 9.2 µM (inactive) | 2.59 µM (inactive) | 0.479 µM (active) | 3.2 µM (inactive) | 4.19 µM (inactive) | 2.99 µM (inactive) | 3.67 µM (inactive)
7 | CN(C)CCCn1nc(N)c2nc3cc(Cl)ccc3nc21 | 28.6 µM (inactive) | > 100 µM (inactive) | 59.8 µM (inactive) | 99.8 µM (inactive) | > 100 µM (inactive) | 25.3 µM (inactive) | 52.1 µM (inactive) | > 79.6 µM (inactive) |  | 20.7 µM (inactive) | 36.2 µM (inactive) | 60.3 µM (inactive) | > 100 µM (inactive) | 32.5 µM (inactive) | 41.4 µM (inactive) | 20.7 µM (inactive) | 44.8 µM (inactive) | 30.3 µM (inactive) | 65.3 µM (inactive)
8 | Oc1ccccc1/C=N/Nc1nc(N/N=C/c2ccccc2O)nc(N/N=C/c2ccccc2O)n1 | > 100 µM (inactive) | 85.3 µM (inactive) | > 100 µM (inactive) | 29.2 µM (inactive) | 71.9 µM (inactive) | 21.1 µM (inactive) | > 100 µM (inactive) | > 100 µM (inactive) | > 100 µM (inactive) | 51.1 µM (inactive) | > 100 µM (inactive) |  | > 100 µM (inactive) | > 100 µM (inactive) | 46.5 µM (inactive) | > 100 µM (inactive) | 47.1 µM (inactive) | 42.2 µM (inactive) | > 100 µM (inactive)
9 | c1ccc2cc(CNCCCCNCCCNCc3ccc4ccccc4c3)ccc2c1 | 1.42 µM (inactive) | 1.78 µM (inactive) | 0.733 µM (active) | 1.6 µM (inactive) | 1.76 µM (inactive) | 1.56 µM (inactive) | 1.99 µM (inactive) | 1.81 µM (inactive) |  | 1.75 µM (inactive) | 0.324 µM (active) | 0.226 µM (active) | 1.6 µM (inactive) | 0.351 µM (active) | 0.167 µM (active) | 1.33 µM (inactive) | 0.564 µM (active) | 0.3 µM (active) | 1.43 µM (inactive)
10 | O=S(=O)(O)c1ccc2cccc(/N=N\c3c(O)ccc4ccccc34)c2c1 | > 100 µM (inactive) | > 100 µM (inactive) | > 100 µM (inactive) | > 100 µM (inactive) | > 100 µM (inactive) | > 100 µM (inactive) | > 100 µM (inactive) | > 100 µM (inactive) | > 100 µM (inactive) | > 100 µM (inactive) | > 100 µM (inactive) |  | > 100 µM (inactive) | > 100 µM (inactive) | > 100 µM (inactive) | > 100 µM (inactive) | > 100 µM (inactive) | > 100 µM (inactive) | > 100 µM (inactive)
11 | COc1ccc(C2CCc3c(cnc4nc(N)nc(N)c34)C2)cc1 (configuration not stated) |  | 44.7 µM (inactive) | 7.16 µM (inactive) | 62.5 µM (inactive) | 18.1 µM (inactive) | 2.38 µM (inactive) | 38.4 µM (inactive) | > 100 µM (inactive) | 6.28 µM (inactive) | 3.35 µM (inactive) | 5.25 µM (inactive) | > 100 µM (inactive) | > 100 µM (inactive) | 8 µM (inactive) | 40.8 µM (inactive) | 1.49 µM (inactive) | 9.29 µM (inactive) | 1.73 µM (inactive) | 33.7 µM (inactive)
12 | CN1CCCC2C(c3ccccc3)C(C3=NCCCC3)C(c3ccccc3)CC21 (configuration not stated) |  | 33.3 µM (inactive) | > 100 µM (inactive) | 35.6 µM (inactive) | > 100 µM (inactive) | 85.9 µM (inactive) | 42.6 µM (inactive) | > 100 µM (inactive) | 31.8 µM (inactive) | 17.8 µM (inactive) | 48.6 µM (inactive) | 18.4 µM (inactive) | 73.6 µM (inactive) | 32.1 µM (inactive) | 21.7 µM (inactive) | 20.7 µM (inactive) | 32.2 µM (inactive) | 15.9 µM (inactive) | > 100 µM (inactive)
13 | COC(=O)C1(Cc2ccccc2)Cc2cc3c(cc2C1)CCC3 | 24 µM (inactive) | 35 µM (inactive) | 42.3 µM (inactive) | 33.7 µM (inactive) | 32.3 µM (inactive) | 11 µM (inactive) | 35.5 µM (inactive) |  | 14.1 µM (inactive) | 29.8 µM (inactive) | 36.1 µM (inactive) | 15.4 µM (inactive) | 30.7 µM (inactive) | 13 µM (inactive) | 34.4 µM (inactive) | 30.6 µM (inactive) | 22.4 µM (inactive) | 22 µM (inactive) | 37.6 µM (inactive)
14 | CC(=O)Oc1ccn2nc(C)c(Br)c2c1Br | 4.6 µM (inactive) | 26 µM (inactive) | 27.7 µM (inactive) | 17.6 µM (inactive) |  | 19.4 µM (inactive) | 25.1 µM (inactive) | 2.88 µM (inactive) | 29 µM (inactive) | 17.7 µM (inactive) | 30.5 µM (inactive) |  | 16.8 µM (inactive) | 40.9 µM (inactive) | 29.6 µM (inactive) | 18.9 µM (inactive) | 35.1 µM (inactive) | 23 µM (inactive) | 49.9 µM (inactive)
15 | CC1=CC(=O)N(n2c(Cc3ccc(Cl)cc3)n[nH]c2=O)C1=O | > 100 µM (inactive) | 35.3 µM (inactive) | 81.3 µM (inactive) | 33.6 µM (inactive) | > 100 µM (inactive) | 21.1 µM (inactive) | 71.8 µM (inactive) | 88.3 µM (inactive) |  | 19.3 µM (inactive) | 32.5 µM (inactive) | 22.6 µM (inactive) | 38.6 µM (inactive) | 15.9 µM (inactive) | 35.4 µM (inactive) | 47.9 µM (inactive) | 27.2 µM (inactive) | 40.3 µM (inactive) | 55.6 µM (inactive)
